# Measurements as given in patent US10202388B2, “Fused-ring compounds, pharmaceutical composition and uses thereof” (SHANGHAI DE NOVO PHARMATECH CO., LTD., priority 2015, dated 2019).
# Molecular target: HeLa cell based IDO1 (Homo sapiens (Human), UniProt P14902)
# Experiment: Three-point IDO1 cellular assay (HeLa, 10, 100 and 1000 nM)
# Conditions: HeLa cells, 100 ng/mL IFN-γ, 18 hours
# Protocol: To perform the 3-point HeLa cell based IDO1 assay, HeLa cells were seeded at 25,000 cells per well into 96-well microplate in 100 μL of growth medium. Cells were incubated at 37° C. and 5% CO2 overnight. The next day 100 μL per well of diluted inhibitor in growth medium at 10, 100 and 1000 nM, respectively, was added at a final concentration of 100 ng/ML human IFN-γ. Cells were incubated at 37° C. in a CO2 incubator for 18 hours. […] The plate was incubated at 50° C. for 30 min to hydrolyze N-formylkynurenine produced by IDO1 to kynurenine. The plate was then centrifuged at 2500 rpm for 10 min to remove sediments. 100 μl of supernatant per well was transferred to another 96-well plate and mixed with 100 μL of 2% (w/v) 4-(Dimethylamino) benzaldehyde in acetic acid. The plate was incubated at room temperature for 10 minutes, the yellow color derived from kynurenine was recorded by measuring absorbance at 480 nm using a microplate reader (TECAN Infinite M1000 Pro). Cell based assays were performed in triplicate at each concentration. The absorbance data were analyzed using the computer software, Graphpad Prism. In the absence of the compound and presence of 100 ng/ML IFN-γ, the absorbance (At) in each data set was defined as 100%. The absorbance of medium blank (Ab) in each data set was defined as 0%. The percent absorbance in the presence of each compound was calculated according to the following equation: % Absorbance=(A−Ab)/(At−Ab), where A=the absorbance in the presence of the compound and IFN-γ, Ab=the absorbance of medium blank, and At=the absorbance in the absence of the compounds and presence of IFN-γ. The values of % absorbance versus the compound concentrations were then determined.
# Sequence of HeLa cell based IDO1 (P14902 whole entry): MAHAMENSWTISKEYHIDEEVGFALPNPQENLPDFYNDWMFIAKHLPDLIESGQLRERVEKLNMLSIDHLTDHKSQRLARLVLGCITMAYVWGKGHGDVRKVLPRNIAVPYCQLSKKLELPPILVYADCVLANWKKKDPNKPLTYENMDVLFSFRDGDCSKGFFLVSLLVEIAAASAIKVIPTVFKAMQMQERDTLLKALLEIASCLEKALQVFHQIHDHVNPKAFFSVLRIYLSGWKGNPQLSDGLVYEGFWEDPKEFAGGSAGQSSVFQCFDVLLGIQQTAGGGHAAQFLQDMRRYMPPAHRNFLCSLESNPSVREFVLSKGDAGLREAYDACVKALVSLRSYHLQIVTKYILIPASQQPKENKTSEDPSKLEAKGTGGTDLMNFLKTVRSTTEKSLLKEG
smiles,measurement,setting,value
O=C1N(c2ccc(F)cc2)CCN1C1C2CC3CC1CC(C(O)CC1c4c(F)cccc4-c4cncn41)(C3)C2 (centres unmarked) [Compound 122],inhibition values of %,at 100 nM,greater than 50%
O=C(Cc1ccncc1)NC1C2CC3CC1CC(C(O)CC1c4ccccc4-c4cncn41)(C3)C2 (centres unmarked) [Compound 50A],inhibition at 1 µM,at 1000 nM,> 50%
Cc1ccc(NC(=O)NC23CC4CC(C2)C(C(O)CC2c5ccccc5-c5cncn52)C(C4)C3)cc1 (centres unmarked) [Compound 164B],inhibition at 1 µM,at 1000 nM,> 50%
O=S(=O)(Cc1ccccc1)NC1C2CC3CC1CC(C(O)CC1c4ccccc4-c4cncn41)(C3)C2 (centres unmarked) [Compound 75A],inhibition at 0.01 µM,at 10 nM,> 50%
O=C(Cc1ccc(F)cc1)N1C2CC3CC1CC(C(O)CC1c4c(F)cccc4-c4cncn41)(C3)C2 (centres unmarked) [Compound 207],inhibition at 1 µM,at 1000 nM,> 50%
Cn1cc(NC(=O)NC2C3CC4CC2CC(C(O)CC2c5c(F)cccc5-c5cncn52)(C4)C3)cn1 (centres unmarked) [Compound 114A],inhibition at 1 µM,at 1000 nM,> 50%
O=S(=O)(CC1CCOCC1)NC1C2CC3CC1CC(C(O)CC1c4c(F)cccc4-c4cncn41)(C3)C2 (centres unmarked) [Compound 84A],inhibition values of %,at 100 nM,greater than 50%
O=C(CC1CCCCC1)NC12CC3CC(C1)C(C(O)CC1c4c(F)cccc4-c4cncn41)C(C3)C2 (centres unmarked) [Compound 192A],inhibition at 0.1 µM,at 100 nM,> 50%
O=S(=O)(CC1CCC1)NC1C2CC3CC1CC(C(O)CC1c4c(F)cccc4-c4cncn41)(C3)C2 (centres unmarked) [Compound 67A],inhibition at 1 µM,at 1000 nM,> 50%
OC(CC1c2c(F)cccc2-c2cncn21)C12CC3CC(C1)C(Nc1nc4cccnc4o1)C(C3)C2 (centres unmarked) [Compound 127],inhibition values of %,at 100 nM,greater than 50%
O=C(Nc1ccc(F)cc1)NC12CC3CC(C1)C(C(O)CC1c4ccccc4-c4cncn41)C(C3)C2 (centres unmarked) [Compound 163A],inhibition at 0.1 µM,at 100 nM,> 50%
O=C(Nc1ccc(F)cc1)NC1C2CC3CC1CC(C(O)CC1c4c(F)cccc4-c4cncn41)(C3)C2 (centres unmarked) [Compound 93B],inhibition at 0.1 µM,at 100 nM,> 50%
O=S(=O)(CC1CCCCC1)NC1C2CC3CC1CC(C(O)CC1c4c(F)cccc4-c4cncn41)(C3)C2 (centres unmarked) [Compound 65],inhibition at 0.01 µM,at 10 nM,> 50%
O=S(=O)(Cc1ccccc1)N1C2CC3CC1CC(C(O)CC1c4c(F)cccc4-c4cncn41)(C3)C2 (centres unmarked) [Compound 205],inhibition at 1 µM,at 1000 nM,> 50%
N#Cc1ccc(NC(=O)NC23CC4CC(C2)C(C(O)CC2c5c(F)cccc5-c5cncn52)C(C4)C3)cc1 (centres unmarked) [Compound 191A],inhibition at 1 µM,at 1000 nM,> 50%
O=C(Nc1ccc(Br)cc1)NC1C2CC3CC1CC(C(O)CC1c4c(F)cccc4-c4cncn41)(C3)C2 (centres unmarked) [Compound 95A],inhibition at 0.1 µM,at 100 nM,> 50%
CC(=O)Nc1ccc(S(=O)(=O)NC23CC4CC(C2)C(C(O)CC2c5ccccc5-c5cncn52)C(C4)C3)cc1 (centres unmarked) [Compound 201A],inhibition at 1 µM,at 1000 nM,> 50%
N#Cc1ccc(C2(O)C3CC4CC2CC(C(O)CC2c5c(F)cccc5-c5cncn52)(C4)C3)cc1 (centres unmarked) [Compound 145],inhibition at 1 µM,at 1000 nM,> 50%
O=S(=O)(NC1C2CC3CC1CC(C(O)CC1c4c(F)cccc4-c4cncn41)(C3)C2)C1CCCC1 (centres unmarked) [Compound 85A],inhibition values of %,at 10 nM,greater than 50%
CS(=O)(=O)NC1C2CC3CC1CC(C(O)CC1c4c(F)cccc4-c4cncn41)(C3)C2 (centres unmarked) [Compound 46A],inhibition at 0.1 µM,at 100 nM,> 50%
O=C1C2CC3CC1CC(C(O)CC1c4c(F)cccc4-c4cncn41)(C3)C2 (centres unmarked) [Compound 63],inhibition values of %,at 1000 nM,greater than 50%
Cc1ccc(CS(=O)(=O)NC2C3CC4CC2CC(C(O)CC2c5c(F)cccc5-c5cncn52)(C4)C3)cc1 (centres unmarked) [Compound 70A],inhibition at 0.01 µM,at 10 nM,> 50%
O=S(=O)(NC12CC3CC(C1)C(C(O)CC1c4ccccc4-c4cncn41)C(C3)C2)C1CC1 (centres unmarked) [Compound 169A],inhibition at 0.1 µM,at 100 nM,> 50%
O=C(NC1CCOCC1)NC1C2CC3CC1CC(C(O)CC1c4c(F)cccc4-c4cncn41)(C3)C2 (centres unmarked) [Compound 54],inhibition values of %,at 1000 nM,greater than 50%
O=C(Nc1ccc2ccccc2c1)NC1C2CC3CC1CC(C(O)CC1c4c(F)cccc4-c4cncn41)(C3)C2 (centres unmarked) [Compound 110A],inhibition at 0.1 µM,at 100 nM,> 50%
O=C(NCC1CC1)NC1C2CC3CC1CC(C(O)CC1c4c(F)cccc4-c4cncn41)(C3)C2 (centres unmarked) [Compound 107A],inhibition at 0.1 µM,at 100 nM,> 50%
OC(CC1c2c(F)cccc2-c2cncn21)C12CC3CC(C1)C(OCCN1CCOCC1)C(C3)C2 (centres unmarked) [Compound 135A],inhibition at 0.1 µM,at 100 nM,> 50%
O=S(=O)(CC1CCCCC1)NC12CC3CC(C1)C(C(O)CC1c4ccccc4-c4cncn41)C(C3)C2 (centres unmarked) [Compound 170A-A],inhibition at 1 µM,at 1000 nM,> 50%
O=C(Nc1cccc2ccccc12)NC1C2CC3CC1CC(C(O)CC1c4c(F)cccc4-c4cncn41)(C3)C2 (centres unmarked) [Compound 109A],inhibition at 1 µM,at 1000 nM,> 50%
CNC(=O)NC1C2CC3CC1CC(C(O)CC1c4c(F)cccc4-c4cncn41)(C3)C2 (centres unmarked) [Compound 98A],inhibition values of %,at 1000 nM,greater than 50%
O=C(Nc1ccc(F)cc1F)NC1C2CC3CC1CC(C(O)CC1c4c(F)cccc4-c4cncn41)(C3)C2 (centres unmarked) [Compound 105A],inhibition at 0.1 µM,at 100 nM,> 50%
N#CC1C2CC3CC1CC(C(O)CC1c4c(F)cccc4-c4cncn41)(C3)C2 (centres unmarked) [Compound 76],inhibition values of %,at 1000 nM,greater than 50%
OC(CC1c2c(F)cccc2-c2cncn21)C12CC3CC(C1)N(c1ncc(-c4ccccc4)o1)C(C3)C2 (centres unmarked) [Compound 210],inhibition at 1 µM,at 1000 nM,> 50%
NS(=O)(=O)NC1C2CC3CC1CC(C(O)CC1c4c(F)cccc4-c4cncn41)(C3)C2 (centres unmarked) [Compound 48A],inhibition at 1 µM,at 1000 nM,> 50%
OC(CC1c2c(F)cccc2-c2cncn21)C12CC3CC(C1)C(O)(c1cccnc1)C(C3)C2 (centres unmarked) [Compound 146],inhibition at 1 µM,at 1000 nM,> 50%
O=S(=O)(CC1CCCC1)NC1C2CC3CC1CC(C(O)CC1c4c(F)cccc4-c4cncn41)(C3)C2 (centres unmarked) [Compound 82A],inhibition at 0.01 µM,at 10 nM,> 50%
O=C(NC1CC1)NC1C2CC3CC1CC(C(O)CC1c4c(F)cccc4-c4cncn41)(C3)C2 (centres unmarked) [Compound 106A],inhibition at 1 µM,at 1000 nM,> 50%
O=C(Cc1ccccc1)NC1C2CC3CC1CC(C(O)CC1c4ccccc4-c4cncn41)(C3)C2 (centres unmarked) [Compound 53B],inhibition at 0.1 µM,at 100 nM,> 50%
O=C(NC1CCCCC1)NC1C2CC3CC1CC(C(O)CC1c4c(F)cccc4-c4cncn41)(C3)C2 (centres unmarked) [Compound 96A],inhibition at 0.1 µM,at 100 nM,> 50%
O=C(NCC1CCC1)NC1C2CC3CC1CC(C(O)CC1c4c(F)cccc4-c4cncn41)(C3)C2 (centres unmarked) [Compound 111A],inhibition at 0.1 µM,at 100 nM,> 50%
O=C(Nc1cccnc1)NC1C2CC3CC1CC(C(O)CC1c4c(F)cccc4-c4cncn41)(C3)C2 (centres unmarked) [Compound 56A],inhibition at 1 µM,at 1000 nM,> 50%
OC(CC1c2c(F)cccc2-c2cncn21)C12CC3CC(C1)C(OCc1ccccc1)C(C3)C2 (centres unmarked) [Compound 133],inhibition at 1 µM,at 1000 nM,> 50%
OC(CC1c2c(F)cccc2-c2cncn21)C12CC3CC(C1)C(OCCN1CCOCC1)C(C3)C2 (centres unmarked) [Compound 135B],inhibition at 1 µM,at 1000 nM,> 50%
Cc1ccc(NC(=O)NC23CC4CC(C2)C(C(O)CC2c5ccccc5-c5cncn52)C(C4)C3)cc1 (centres unmarked) [Compound 164A],inhibition at 0.1 µM,at 100 nM,> 50%
OC(COC1C2CC3CC1CC(C(O)CC1c4c(F)cccc4-c4cncn41)(C3)C2)C1CCCCC1 (centres unmarked) [Compound 137],inhibition at 1 µM,at 1000 nM,> 50%
Cc1ccc(NS(=O)(=O)NC2C3CC4CC2CC(C(O)CC2c5ccccc5-c5cncn52)(C4)C3)cc1 (centres unmarked) [Compound 153],inhibition at 0.1 µM,at 100 nM,> 50%
O=S(=O)(NC12CC3CC(C1)C(C(O)CC1c4ccccc4-c4cncn41)C(C3)C2)C1CC1 (centres unmarked) [Compound 169B],inhibition at 1 µM,at 1000 nM,> 50%
O=C(CO)NC1C2CC3CC1CC(C(O)CC1c4ccccc4-c4cncn41)(C3)C2 (centres unmarked) [Compound 51A],inhibition at 1 µM,at 1000 nM,> 50%
O=C(NCC1CCOC1)NC1C2CC3CC1CC(C(O)CC1c4c(F)cccc4-c4cncn41)(C3)C2 (centres unmarked) [Compound 112A],inhibition at 1 µM,at 1000 nM,> 50%
ON=C1C2CC3CC1CC(C(O)CC1c4c(F)cccc4-c4cncn41)(C3)C2 (centres unmarked) [Compound 80],inhibition values of %,at 1000 nM,greater than 50%
CN(C1C2CC3CC1CC(C(O)CC1c4c(F)cccc4-c4cncn41)(C3)C2)S(=O)(=O)Cc1ccccc1 (centres unmarked) [Compound 89],inhibition values of %,at 100 nM,greater than 50%
O=S(=O)(NC12CC3CC(C1)C(C(O)CC1c4ccccc4-c4cncn41)C(C3)C2)c1ccc(C(F)(F)F)cc1 (centres unmarked) [Compound 166B],inhibition at 0.1 µM,at 100 nM,> 50%
O=S(=O)(c1ccccc1)N1C2CC3CC1CC(C(O)CC1c4c(F)cccc4-c4cncn41)(C3)C2 (centres unmarked) [Compound 206],inhibition at 1 µM,at 1000 nM,> 50%
OCCC1(O)C2CC3CC1CC(C(O)CC1c4c(F)cccc4-c4cncn41)(C3)C2 (centres unmarked) [Compound 142],inhibition values of %,at 1000 nM,greater than 50%
OC(CC1c2c(F)cccc2-c2cncn21)C12CC3CC(C1)C(Nc1nc4ccccc4s1)C(C3)C2 (centres unmarked) [Compound 126],inhibition at 0.01 µM,at 10 nM,> 50%
O=S(=O)(CC1CC1)NC1C2CC3CC1CC(C(O)CC1c4c(F)cccc4-c4cncn41)(C3)C2 (centres unmarked) [Compound 68],inhibition at 0.1 µM,at 100 nM,> 50%
O=S(=O)(CCc1ccccc1)NC1C2CC3CC1CC(C(O)CC1c4c(F)cccc4-c4cncn41)(C3)C2 (centres unmarked) [Compound 64],inhibition at 0.1 µM,at 100 nM,> 50%
CC(=O)c1ccc(NC(=O)NC2C3CC4CC2CC(C(O)CC2c5ccccc5-c5cncn52)(C4)C3)cc1 (centres unmarked) [Compound 104],inhibition at 1 µM,at 1000 nM,> 50%
O=C(Nc1ccc(F)cc1)NC12CC3CC(C1)C(C(O)CC1c4ccccc4-c4cncn41)C(C3)C2 (centres unmarked) [Compound 163B],inhibition at 1 µM,at 1000 nM,> 50%
